These results are taken from PMC6394474, “Evaluation of the effects of formulation, food, or a proton-pump inhibitor on the pharmacokinetics of glasdegib (PF-04449913) in healthy volunteers: a randomized phase I study” (Cancer Chemotherapy and Pharmacology, 2018).

Data set [1] can be described thus: Phase I single-dose plasma pharmacokinetics of glasdegib tablet formulations in healthy volunteers (HPLC-MS/MS, noncompartmental analysis). The class given is in vivo, human.
Description: This was a Phase I, randomized, open-label, three-period, four-sequence, four-treatment study in healthy volunteers. Subjects were randomized to one of four treatment sequences (Fig. 1). All subjects received three treatments with a washout period of at least 7 days between each administration period. The duration of each administration period was 6 days with the exception of PPI treatment, which was 12 days (including 6-day follow-up after glasdegib administration).
No food was allowed for at least 4 h after glasdegib dosing.
Following a 10-h fast, subjects consumed a recommended high-fat (~ 50% of total caloric content of the meal), high-calorie meal (~ 800 to 1000 calories with 150, 250, and 500–600 calories from protein, carbohydrate, and fat, respectively).
Following a 7-day washout period, rabeprazole 40 mg was administered daily for 7 days. On the day of PK sample collection (day 7 of rabeprazole administration), both rabeprazole and glasdegib were administered in the fasted state. Rabeprazole was administered 4 h before glasdegib. […]
The primary PK endpoints were AUCinf and Cmax of glasdegib. Additional PK endpoints were AUC from time 0 to the last quantifiable concentration (AUClast), time for Cmax (Tmax), plasma elimination half-life (t½), apparent oral clearance (CL/F), and apparent volume of distribution following oral dose (Vz/F).
Glasdegib plasma concentrations were determined at Covance Bioanalytical Services (Shanghai, China) using a validated, sensitive, and specific high-performance liquid chromatography–tandem mass spectrometric (HPLC–MS/MS) method. […]
Calibration curves were linear over the range of 3–3000 ng/mL for glasdegib in plasma, using a weighted (1/concentration^2) linear regression. The lower limit of quantification (LLOQ) of glasdegib was 3 ng/mL.
Glasdegib PK parameters were calculated using noncompartmental analysis of plasma concentration–time data. […] AUClast was determined using the linear/log trapezoidal method. […] The t½ was calculated as loge(2)/Kel, CL/F was calculated as dose/AUCinf, and Vz/F was calculated as dose/(AUCinf × Kel). […]
In the next data set the test system is Hedgehog pathway. Also on record: method as in PMID 28556364. Conditions: 50 mg QD dose; skin; cited from earlier work.
The conditions of data set [2]: weakly basic drug; higher solubility at acidic pH; cited from earlier work.
Data set [3] is described as follows: Safety and tolerability: treatment-emergent adverse event monitoring in healthy subjects. It counts as in vivo, human. As for the experimental part: Safety and tolerability of glasdegib were assessed by adverse event (AE) monitoring and changes in clinical laboratory results, ECGs, and physical examination findings. AEs were graded according to the Medical Dictionary for Regulatory Activities version 20.0.

On the set-up of data set [4]: method as in PMID 24900436. Conditions: unpublished; cited from earlier work.
Details of data set [5]: method as in PMID 29086063. Conditions: early maleate-salt tablet formulations, in the presence of PPIs, single 100-mg oral dose; cited from earlier work.
[6] abbreviates: in the presence of a PPI (rabeprazole) vs fasted alone.

Entries after “also recorded” stand apart in the source; their conditions may differ.

With `CN1CC[C@@H](NC(=O)Nc2ccc(C#N)cc2)C[C@@H]1c1nc2ccccc2[nH]1` [glasdegib], in data set [1] (high-fat, high-calorie meal vs fasted, single 100 mg oral dose), the “decrease in geometric mean AUCinf” value was determined as 16%. Also, in data set [1] (setting [6]), the “change in geometric mean AUCinf” value is reported as “did not result in a change” and the “decrease in geometric mean Cmax” value is recorded as ~ 20%. For the same molecule, in the data set with Hedgehog pathway, the “downregulation of the Hedgehog pathway” value is “consistent downregulation”. The “solubility (pH-dependent)” value in data set [2] is “drops substantially at pH ≥ 6.3; also recorded: decreasing solubility as pH increases”. The “deaths, serious AEs, severe AEs, dose reductions, discontinuations due to AEs” value in data set [3] (all treatment arms) is “no deaths, serious AEs, severe AEs, dose reductions, or permanent/temporary discontinuations due to AEs”. Also, in data set [3] (human, in vivo), the “TEAEs reported across all treatment arms” value amounted to 17; the “gastrointestinal disorders, share of all TEAEs” value turned out to be 35%; the “severity of observed TEAEs” value is given as “mild”; the “subjects with TEAEs across all treatment arms” value is given as 12. In addition, the “Biopharmaceutical Classification System class” value in data set [4] is reported as “II or IV”. Moreover, in data set [5], the “decrease in Cmax” value is 13% and the “increase in AUCinf” value is 12%.
